Assay results published in the NIST ThermoML archive (doi:10.1016/j.jct.2007.11.010).
± gives the expanded uncertainty stated by the source.

Conditions: 101.33 kPa, Liquid

Structure (SMILES) | mass density (293.15 K) [kg/m3] | mass density (298.15 K) [kg/m3] | mass density (303.15 K) [kg/m3] | mass density (313.15 K) [kg/m3] | mass density (323.15 K) [kg/m3]
OCCN1CCOCC1 [4-morpholineethanol] | 1076.58 ± 0.97 | 1071.3 ± 0.94 | 1066.51 ± 0.92 | 1059.19 ± 0.88 | 1052.64 ± 0.84
CCCCO [butan-1-ol] | 809.52 ± 0.46 | 805.88 ± 0.47 | 801.99 ± 0.47 | 794.34 ± 0.48 | 786.67 ± 0.5
CCC(C)O (stereo not given) [butan-2-ol] | 805.56 ± 1.3 | 802.43 ± 1.4 | 797.76 ± 1.4 | 790.11 ± 1.4 | 784.92 ± 1.4
CCO [ethanol] | 788.33 ± 0.49 | 784.97 ± 0.5 | 780.72 ± 0.5 | 772.61 ± 0.52 | 764.14 ± 0.53
CCCO [propan-1-ol] | 803.56 ± 0.47 | 799.71 ± 0.48 | 795.58 ± 0.48 | 787.34 ± 0.49 | 778.97 ± 0.51
CC(C)O [propan-2-ol] | 785.18 ± 0.5 | 781.31 ± 0.5 | 776.66 ± 0.51 | 767.83 ± 0.52 | 758.71 ± 0.54
